For 1 compound, Activity results are on record in ChEMBL document CHEMBL1150182, “Lissoclinolide, the first non-nitrogenous metabolite from a Lissoclinum tunicate” (J Nat Prod, 1990).

Structures are written as SMILES. The source made the active and inactive calls. The rule behind the calls is not given here.

For this experiment, the system named is Escherichia coli. Description: Antibacterial activity against Escherichia coli. The class given is functional, organism-based.

Turning to `O=C1O/C(=C\C=C\CO)C=C1/C=C/CO`, the outcome was inactive.
